The values that follow come from patent US8791079B2, “Methods for treating heart failure by inhibiting the mitochondrial sodium-calcium exchanger (mNCE)” (priority 2009, dated 2014).

The structures appear in SMILES notation.

For experiment [1], the system named is Guinea pig ventricular myocytes. Kind of experiment: [Na+]i recording with SBFI in isolated cardiac myocytes. It counts as cell-based. Particulars: ouabain at different concentrations, at rest or with 1-Hz stimulation. The procedure: Guinea pig ventricular myocytes were isolated by enzymatic digestion as described previously. O'Rourke, B., et al., “Oscillations of membrane current and excitability driven by metabolic oscillations in heart cells,” Science, 265(5174):962-966 (Aug. 12, 1994). Cells were suspended in Dulbecco's Modification of Eagle's Medium (DMEM) supplemented with 5% fetal bovine serum, 1% penicillin/streptomycin, and 15 mmol/L HEPES, pH 7.4, and stored in a 5% CO2 incubator at 37° C.
Cytosolic Ca^2+ ([Ca^2+]c), mitochondrial Ca^2+ ([Ca^2+]m), and [Na^+]i were measured with the fluorescent indicators indo-1, rhod-2, and sodium-binding benzofuran isophthalate (SBFI), respectively (Invitrogen, Carlsbad, Calif.), and mitochondrial NADH was measured as the cellular autofluorescence with 360-nm excitation/450-nm emission. Indo-1 was loaded into cell with the membrane permeable form, indo-1 AM. To minimize indo-1 loading into the mitochondrial compartment, cells were briefly incubated with indo-1 AM at room temperature for 20 min. Rhod-2 and SBFI experiments were carried out as previously described. Maack et al., supra, Liu and O'Rourke, supra. […]
Isolated ventricular myocytes were loaded into a heated field-stimulation chamber (Warner Instruments, Hamden, Conn.) at 37° C. on the stage of a fluorescence microscope (Nikon Eclipse TE300, Nikon Instruments, Inc., Melville, N.Y.). […]

Experiment [2] has as its system aortic-banded animals. As to the kind of experiment: Acute sudden cardiac death model (ascending aortic banding plus isoproterenol 5 mg/kg). It counts as in vivo, guinea pig. To be noted: single dose 5 mg/kg isoproterenol i.p. two days after aortic banding; CGP-37157 by osmotic pump; 77% without CGP-37157. From the text:
(§1) As provided herein, the presently disclosed subject matter investigated whether these mechanisms underlie sudden cardiac death (SCD) and contractile decompensation in hypertrophic heart failure in two novel guinea-pig models of combined ascending aortic constriction together with β-adrenergic stimulation and whether therapy via mNCE inhibition was effective. Accordingly, in some embodiments, the presently disclosed subject matter provides a therapeutic strategy for treating heart failure.
(§2) Two models were developed: acute SCD and delayed SCD. The acute SCD model used a high dose of isoproterenol (5 mg/kg) administered by a single intraperitoneal injection two days after ascending aortic banding; and the delayed SCD model used low dose isoproterenol (week one: 1 mg/kg; subsequent weeks: 2 mg/kg), administered by daily intraperitoneal injection over the course of five weeks after aortic banding. Additionally, a therapeutic regime comprised of chronic treatment with an inhibitor of mNCE, e.g., CGP-37157, mean dose approximately 40 μg/kg, administered by implantation of an osmotic pump in the abdominal cavity (delivery rate: 0.015 mg/kg/hr) for extended delivery of the compound was initiated.

Experiment [3] deals with aortic-banded animals. As to the kind of experiment: Delayed sudden cardiac death model (aortic banding plus daily low dose isoproterenol), survival and echocardiography. It counts as in vivo, guinea pig.
Source text: as §1, §2
The delayed SCD protocol was used to investigate the effect of chronic CGP-37157 treatment on mortality and the development of heart failure. Survival was extended using this protocol as compared with the acute SCD model. In the absence of CGP-37157, however, the death rate of the animals approached 60% by 30 days post-banding (see FIG. 10). In contrast, more than 78% of the animals survived in the group with CGP-37157 treatment (see FIG. 10).
Further, echocardiographic studies were carried out before surgery and at four weeks after aortic banding (see FIG. 11). […] In the group with CGP-37157 treatment, however, cardiac function was maintained.

For experiment [4], the target named is T1, mitochondrial Na+/Ca2+ exchanger (mNCE) (Cavia porcellus, UniProt H0V3X3).
T1 construct: in normal cardiac myocytes, with [Na^+]i elevated artificially using the patch clamp technique, and in myocytes isolated from failing hearts; host or cells: isolated cardiac myocytes (endogenous protein)
T1 sequence (H0V3X3 27-580): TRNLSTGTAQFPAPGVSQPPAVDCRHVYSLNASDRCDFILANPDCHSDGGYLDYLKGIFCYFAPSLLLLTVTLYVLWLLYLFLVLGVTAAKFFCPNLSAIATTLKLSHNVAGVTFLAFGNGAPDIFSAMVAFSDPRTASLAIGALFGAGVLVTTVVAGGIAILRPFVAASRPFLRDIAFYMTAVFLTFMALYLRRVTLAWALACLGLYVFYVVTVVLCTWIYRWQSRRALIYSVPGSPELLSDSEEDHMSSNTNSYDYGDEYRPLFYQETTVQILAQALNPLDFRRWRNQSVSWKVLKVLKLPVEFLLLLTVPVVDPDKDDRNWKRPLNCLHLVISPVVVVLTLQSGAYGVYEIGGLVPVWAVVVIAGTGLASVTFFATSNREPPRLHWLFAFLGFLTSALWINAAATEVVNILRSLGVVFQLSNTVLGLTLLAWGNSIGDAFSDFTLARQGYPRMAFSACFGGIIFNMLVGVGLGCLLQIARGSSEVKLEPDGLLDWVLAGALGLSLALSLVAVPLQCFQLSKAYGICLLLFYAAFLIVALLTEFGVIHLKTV
To be noted: cited from earlier work.

Turning to `C[C@@H]1O[C@@H](O[C@H]2C[C@@H](O)[C@]3(CO)[C@H]4[C@H](O)C[C@]5(C)[C@@H](C6=CC(=O)OC6)CC[C@]5(O)[C@@H]4CC[C@]3(O)C2)[C@H](O)[C@H](O)[C@H]1O` [ouabain, 1β,3β,5β,11α,14,19-Hexahydroxycard-20(22)-enolide 3-(6-deoxy-α-L-mannopyranoside, reference compound], in experiment [1], the “[Na+]i” value is “elevated [Na^+]i monotonically in a dose-dependent way”.
`O=C1CSC(c2ccccc2Cl)c2cc(Cl)ccc2N1` (centres unmarked) [CGP-37157, 7-chloro-5-(2-chlorophenyl)-1,5-dihydro-4,1-benzothiazepin-2(3H)-one]: in experiment [2], the death rate turned out to be 20%. The animals survived result in experiment [3] (30 days post-banding, daily isoproterenol, CGP-37157 by osmotic pump, death rate approached 60% without CGP-37157) is “more than 78%”. Moreover, in experiment [3] (CGP-37157-treated group, before surgery, n=6), the “Fractional Shortening (FS) at baseline” value is 54.0%±1.0. Further, the “Fractional Shortening (FS) at four weeks after aortic banding” value in experiment [3] (CGP-37157-treated group, n=6, without CGP-37157 FS decreased from 54.9 to 42.5) was 59.2%±1.8. Also, the “left ventricular wall thickness” value in experiment [3] (echocardiography four weeks after aortic banding versus before surgery) was “increased similarly in both groups”. Also, in experiment [4] (cells with elevated [Na+]i), the “mitochondrial NADH production” value is given as “restores mitochondrial NADH production”. Moreover, the “mitochondrial Ca2+ retention capacity” value in experiment [4] (inhibition of [Ca2+]m efflux) is “increases mitochondrial Ca^2+ retention capacity”.
